These are literature values, as cited in patent US20170128486A1, “CONSUMABLE COMPOSITIONS AND USES THEREOF FOR ALLEVIATING UNDESIRABLE PHYSIOLOGICAL EFFECTS SYSTEMS” (ImmunoL0G1C R&D Inc., priority 2015, published 2017).

The solubility is the concentration that dissolves in the medium under given conditions.

In brackets after ≈: the same amount, converted by molar mass.

As for `N[C@@H](Cc1c[nH]c2ccccc12)C(=O)O` [L-tryptophan], the “solubility in water” value is “poorly soluble in water”.
Turning to `N[C@@H](Cc1c[nH]c2ccc(O)cc12)C(=O)O` [5-hydroxytryptophan], the solubility (in water) was 10000 µg/mL (≈ 45.4 mM).
